Test results published in patent US20240246966A1, “NEW PYRAZOLO[1,5-a] PYRIMIDINE DERIVATIVES AS SIGMA LIGANDS” (ACONDICIONAMIENTO TARRASENSE, priority 2021, published 2024).

Assays:
Human σ1 Receptor = target: T1, Human σ1 Receptor (Homo sapiens, UniProt Q99720); experiment: Human σ1 receptor radioligand assay ([3H](+)-pentazocine, transfected HEK-293 membranes); details: human σ1, [3H](+)-pentazocine 5 nM, binding expressed as Ki, read-out: Binding σ-1
T1 construct: expressed in transfected cells; host or cells: HEK-293
Protocol: Human σ1 Receptor Radioligand Assay
Transfected HEK-293 membranes (7 μg) were incubated with 5 nM of [^3H](+)-pentazocine in assay buffer containing Tris-HCl 50 mM at pH 8. NBS (non-specific binding) was measured by adding 10 μM haloperidol. The binding of the test compound was measured at either one concentration (% inhibition at 1 or 10 μM) or five different concentrations to determine affinity values (Ki). Plates were incubated at 37° C. for 120 minutes. After the incubation period, the reaction mix was then transferred to MultiScreen HTS, FC plates (Millipore), filtered and plates were washed 3 times with ice-cold 10 mM Tris-HCL (pH 7.4). Filters were dried and counted at approximately 40% efficiency in a MicroBeta scintillation counter (Perkin-Elmer) using EcoScint liquid scintillation cocktail.

Human σ2/TMEM97 receptor = target: T2, Human σ2/TMEM97 receptor (Homo sapiens, UniProt Q5BJF2); experiment: Binding assay to human σ2/TMEM97 receptor ([3H]-DTG, transfected HEK-293 membranes); details: human σ2/TMEM97, [3H]-DTG 10 nM, binding expressed as Ki, read-out: Binding σ-2
T2 construct: expressed in transfected cells; host or cells: HEK-293
Protocol: Binding Assay to Human ρ2/TMEM97 Receptor
Transfected HEK-293 membranes (15 μg) were incubated with 10 nM [^3H]-1,3-Di-o-tolylguanidine ( DTG) in assay buffer containing Tris-HCl 50 mM at pH 8.0. NSB (non-specific binding) was measured by adding 10 μM haloperidol. The binding of the test compound was measured at either one concentration (% inhibition at 1 or 10 μM) or five different concentrations to determine affinity values (Ki). Plates were incubated at 25° C. for 120 minutes. After the incubation period, the reaction mix was transferred to MultiScreen HTS, FC plates (Millipore), filtered and washed 3 times with ice-cold 10 mM Tris-HCL (pH 8.0). Filters were dried and counted at approximately 40% efficiency in a MicroBeta scintillation counter (Perkin-Elmer) using EcoScint liquid scintillation cocktail.

T2 sequence (Q5BJF2 whole entry): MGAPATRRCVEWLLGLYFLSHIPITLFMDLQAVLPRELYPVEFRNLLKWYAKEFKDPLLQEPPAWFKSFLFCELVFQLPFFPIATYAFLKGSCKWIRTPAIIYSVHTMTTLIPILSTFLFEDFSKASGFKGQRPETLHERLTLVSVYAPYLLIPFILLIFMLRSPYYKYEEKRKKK
T1 sequence (Q99720 whole entry): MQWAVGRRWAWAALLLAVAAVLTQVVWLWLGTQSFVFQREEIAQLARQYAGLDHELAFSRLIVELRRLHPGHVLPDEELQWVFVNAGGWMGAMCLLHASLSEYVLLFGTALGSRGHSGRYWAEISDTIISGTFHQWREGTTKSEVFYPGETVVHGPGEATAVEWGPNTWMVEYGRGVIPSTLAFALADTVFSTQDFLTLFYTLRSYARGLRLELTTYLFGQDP

Row | Ki (Human σ1 Receptor) | Ki (Human σ2/TMEM97 receptor) | Structure (SMILES)
1 | < 100 nM | > 1000 nM | FC(F)(F)c1cc(-c2cnn3cc(CN4CCCC4)cnc23)ccn1 [Example 1, 6-(Pyrrolidin-1-ylmethyl)-3-(2-(trifluoromethyl)pyridin-4-yl)pyrazolo[1,5-a]pyrimidine]
2 | 100 to 500 nM | > 1000 nM | c1cc(-c2cnn3cc(CN4CCCC4)cnc23)ccn1 [Example 2, 3-(Pyridin-4-yl)-6-(pyrrolidin-1-ylmethyl)pyrazolo[1,5-a]pyrimidine]
3 | < 100 nM | > 1000 nM | Fc1cnccc1-c1cnn2cc(CN3CCCC3)cnc12 [Example 3, 3-(3-Fluoropyridin-4-yl)-6-(pyrrolidin-1-ylmethyl)pyrazolo[1,5-a]pyrimidine]
4 | < 100 nM | > 1000 nM | COc1ncccc1-c1cnn2cc(CN3CCCC3)cnc12 [Example 4, 3-(2-Methoxypyridin-3-yl)-6-(pyrrolidin-1-ylmethyl)pyrazolo[1,5-a]pyrimidine]
5 | < 100 nM | > 1000 nM | c1ccc(C2CCN(Cc3cnc4c(-c5ccncc5)cnn4c3)CC2)cc1 [Example 5, 6-((4-Phenylpiperidin-1-yl)methyl)-3-(pyridin-4-yl)pyrazolo[1,5-a]pyrimidine]
6 | < 100 nM | 100 to 500 nM | FC(F)(F)c1cc(-c2cnn3cc(CN4CCC(c5ccccc5)CC4)cnc23)ccn1 [Example 6, 6-((4-Phenylpiperidin-1-yl)methyl)-3-(2-(trifluoromethyl)pyridin-4-yl)pyrazolo[1,5-a]pyrimidine]
7 | 100 to 500 nM | > 1000 nM | FC(F)(F)c1cc(-c2cnn3cc(CN4CCC5(CCO5)CC4)cnc23)ccn1 [Example 7, 7-((3-(2-(Trifluoromethyl)pyridin-4-yl)pyrazolo[1,5-a]pyrimidin-6-yl)methyl)-1-oxa-7-azaspiro[3.5]nonane]
8 | 500 to 1000 nM | > 1000 nM | Fc1cnccc1-c1cnn2cc(CN3CCC4(CCO4)CC3)cnc12 [Example 8, 7-((3-(3-Fluoropyridin-4-yl)pyrazolo[1,5-a]pyrimidin-6-yl)methyl)-1-oxa-7-azaspiro[3.5]nonane]
9 | < 100 nM | > 1000 nM | FC(F)(F)c1cc(-c2cnn3cc(CN4CCC5(CC4)COC5)cnc23)ccn1 [Example 9, 7-((3-(2-(Trifluoromethyl)pyridin-4-yl)pyrazolo[1,5-a]pyrimidin-6-yl)methyl)-2-oxa-7-azaspiro[3.5]nonane]
10 | < 100 nM | > 1000 nM | FC(F)(F)c1cc(-c2cnn3cc(CN4CCC5(CCOC5)CC4)cnc23)ccn1 [Example 10, 8-((3-(2-(Trifluoromethyl)pyridin-4-yl)pyrazolo[1,5-a]pyrimidin-6-yl)methyl)-2-oxa-8-azaspiro[4.5]decane]
11 | 500 to 1000 nM | > 1000 nM | FC1(F)CCN(Cc2cnc3c(-c4ccnc(C(F)(F)F)c4)cnn3c2)CC1 [Example 11, 6-((4,4-Difluoropiperidin-1-yl)methyl)-3-(2-(trifluoromethyl)pyridin-4-yl)pyrazolo[1,5-a]pyrimidine]
12 | < 100 nM | > 1000 nM | CCN(CC)Cc1cnc2c(-c3ccnc(C(F)(F)F)c3)cnn2c1 [Example 12, N-Ethyl-N-((3-(2-(trifluoromethyl)pyridin-4-yl)pyrazolo[1,5-a]pyrimidin-6-yl)methyl)ethanamine]
13 | < 100 nM | 500 to 1000 nM | FC(F)(F)c1ccc(-c2cnn3cc(CN4CCC5(CC4)COC5)cnc23)cn1 [Example 13, 7-((3-(6-(Trifluoromethyl)pyridin-3-yl)pyrazolo[1,5-a]pyrimidin-6-yl)methyl)-2-oxa-7-azaspiro[3.5]nonane]
14 | < 100 nM | 500 to 1000 nM | FC(F)(F)c1cccc(-c2cnn3cc(CN4CCC5(CC4)COC5)cnc23)n1 [Example 14, 7-((3-(6-(Trifluoromethyl)pyridin-2-yl)pyrazolo[1,5-a]pyrimidin-6-yl)methyl)-2-oxa-7-azaspiro[3.5]nonane]
15 | < 100 nM | > 1000 nM | Cc1cc(-c2cnn3cc(CN4CCC5(CC4)COC5)cnc23)ccn1 [Example 15, 7-((3-(2-Methylpyridin-4-yl)pyrazolo[1,5-a]pyrimidin-6-yl)methyl)-2-oxa-7-azaspiro[3.5]nonane]
16 | < 100 nM | > 1000 nM | Clc1cc(-c2cnn3cc(CN4CCC5(CC4)COC5)cnc23)ccn1 [Example 16, 7-((3-(2-Chloropyridin-4-yl)pyrazolo[1,5-a]pyrimidin-6-yl)methyl)-2-oxa-7-azaspiro[3.5]nonane]

Row | Ki (Human σ1 Receptor) | Ki (Human σ2/TMEM97 receptor) | Structure (SMILES)
17 | < 100 nM | > 1000 nM | FC(F)(F)c1ccncc1-c1cnn2cc(CN3CCC4(CC3)COC4)cnc12 [Example 17, 7-((3-(4-(Trifluoromethyl)pyridin-3-yl)pyrazolo[1,5-a]pyrimidin-6-yl)methyl)-2-oxa-7-azaspiro[3.5]nonane]
18 | 500 to 1000 nM | > 1000 nM | c1ccc(-c2cnn3cc(CN4CCC5(CC4)COC5)cnc23)nc1 [Example 18, 7-((3-(Pyridin-2-yl)pyrazolo[1,5-a]pyrimidin-6-yl)methyl)-2-oxa-7-azaspiro[3.5]nonane]
19 | < 100 nM | > 1000 nM | FC(F)(F)c1cnccc1-c1cnn2cc(CN3CCC4(CC3)COC4)cnc12 [Example 19, 7-((3-(3-(Trifluoromethyl)pyridin-4-yl)pyrazolo[1,5-a]pyrimidin-6-yl)methyl)-2-oxa-7-azaspiro[3.5]nonane]
20 | 100 to 500 nM | 500 to 1000 nM | Cc1nn2cc(CN3CCC4(CC3)COC4)cnc2c1-c1ccnc(C(F)(F)F)c1 [Example 20, 7-((2-Methyl-3-(2-(trifluoromethyl)pyridin-4-yl)pyrazolo[1,5-a]pyrimidin-6-yl)methyl)-2-oxa-7-azaspiro[3.5]nonane]
21 | < 100 nM | > 1000 nM | COC1CCN(Cc2cnc3c(-c4ccc(C(F)(F)F)nc4)cnn3c2)CC1 [Example 21, 6-((4-Methoxypiperidin-1-yl)methyl)-3-(6-(trifluoromethyl)pyridin-3-yl)pyrazolo[1,5-a]pyrimidine]
22 | < 100 nM | > 1000 nM | FC(F)(F)c1ccc(-c2cnn3cc(CN4CC5(CCOCC5)C4)cnc23)cn1 [Example 22, 2-((3-(6-(Trifluoromethyl)pyridin-3-yl)pyrazolo[1,5-a]pyrimidin-6-yl)methyl)-7-oxa-2-azaspiro[3.5]nonane]
23 | 100 to 500 nM | > 1000 nM | COC1CCN(Cc2cnc3c(-c4ccnc(C)c4)cnn3c2)CC1 [Example 23, 6-((4-Methoxypiperidin-1-yl)methyl)-3-(2-methylpyridin-4-yl)pyrazolo[1,5-a]pyrimidine]
24 | 100 to 500 nM | > 1000 nM | Cc1cc(-c2cnn3cc(CN4CCCOCC4)cnc23)ccn1 [Example 24, 4-((3-(2-Methylpyridin-4-yl)pyrazolo[1,5-a]pyrimidin-6-yl)methyl)-1,4-oxazepane]
25 | < 100 nM | > 1000 nM | COCC1CCN(Cc2cnc3c(-c4ccnc(C)c4)cnn3c2)CC1 [Example 25, 6-((4-(Methoxymethyl)piperidin-1-yl)methyl)-3-(2-methylpyridin-4-yl)pyrazolo[1,5-a]pyrimidine]
26 | 100 to 500 nM | > 1000 nM | Cc1cc(-c2cnn3cc(CN4CCC5(CCOCC5)CC4)cnc23)ccn1 [Example 26, 9-((3-(2-Methylpyridin-4-yl)pyrazolo[1,5-a]pyrimidin-6-yl)methyl)-3-oxa-9-azaspiro[5.5]undecane]
27 | < 100 nM | > 1000 nM | Cc1cc(-c2cnn3cc(CN4CC5(CCOCC5)C4)cnc23)ccn1 [Example 27, 2-((3-(2-Methylpyridin-4-yl)pyrazolo[1,5-a]pyrimidin-6-yl)methyl)-7-oxa-2-azaspiro[3.5]nonane]
28 | < 100 nM | 500 to 1000 nM | COCC1CCN(Cc2cnc3c(-c4ccnc(C(F)(F)F)c4)cnn3c2)CC1 [Example 28, 6-((4-(Methoxymethyl)piperidin-1-yl)methyl)-3-(2-(trifluoromethyl)pyridin-4-yl)pyrazolo[1,5-a]pyrimidine]
29 | > 1000 nM | > 1000 nM | FC(F)(F)c1cc(-c2cnn3cc(CN4CCOCC4)cnc23)ccn1 [Example 29, 4-((3-(2-(Trifluoromethyl)pyridin-4-yl)pyrazolo[1,5-a]pyrimidin-6-yl)methyl)morpholine]
30 | < 100 nM | 500 to 1000 nM | CCOCC1CCN(Cc2cnc3c(-c4ccnc(C(F)(F)F)c4)cnn3c2)CC1 [Example 30, 6-((4-(Ethoxymethyl)piperidin-1-yl)methyl)-3-(2-(trifluoromethyl)pyridin-4-yl)pyrazolo[1,5-a]pyrimidine]
31 | < 100 nM | 100 to 500 nM | FC(F)(F)c1cc(-c2cnn3cc(CN4CCCOCC4)cnc23)ccn1 [Example 31, 4-((3-(2-(Trifluoromethyl)pyridin-4-yl)pyrazolo[1,5-a]pyrimidin-6-yl)methyl)-1,4-oxazepane]
32 | < 100 nM | 100 to 500 nM | FC(F)(F)c1cc(-c2cnn3cc(CN4CCC5(CCOCC5)CC4)cnc23)ccn1 [Example 32, 9-((3-(2-(Trifluoromethyl)pyridin-4-yl)pyrazolo[1,5-a]pyrimidin-6-yl)methyl)-3-oxa-9-azaspiro[5.5]undecane]
